The values that follow come from patent US7037919B1, “Tetrahydroquinoline derivatives” (Kaken Pharmaceutical Co. Ltd., priority 1999, dated 2006).

The test system of test [1] is orchiectomized rats. In words: Inhibitory action on testosterone-induced prostate weight increase in orchiectomized rats (Test Example 5). The class given is in vivo, rat. Particulars: TP 1 mg/kg s.c. alone, once daily for one week, orchiectomized SD rats, Mean ± SD. The method, then: Inhibitory Action on Testosterone-induced Prostate Weight Increase in Orchiectomized Rats
Testes were removed from 8-week-old male SD rats. From 5 days postoperation, 1 mg/kg of testosterone propionate (hereinafter referred to as TP) and 30 mg/kg of the compound of the present invention were simultaneously injected once daily for one consecutive week. The compound of the present invention was suspended in a 0.5% methyl cellulose solution, while TP was dissolved in cottonseed oil containing 5% ethanol. Each of the test compounds was subcutaneously administered. On the next day after final administration, the wet weight of the ventral prostate was measured to evaluate the AR antagonistic effect of the compound of the present invention on TP-induced prostate weight increase.

The subject of test [2] is orchiectomized (ORX) rats. Description: Action of increasing prostate weight and bone mineral density in orchiectomized (ORX) rats (Test Example 4). The class given is in vivo, rat. Particulars: 5 days weekly, 4 weeks, ORX SD rats, Mean ± SD; for Bone mineral density: right femur. The protocol: Action of Increasing Prostate Weight and Bone Mineral Density in Orchiectomized (ORX) Rats
Orchiectomy was performed in 12-week-old male SD rats. From the next day postoperation, the positive control compound dihydrotestosterone (DHT, 10 mg/kg) and the compound of the present invention (Example 60, 60 mg/kg), each dissolved in a 5% dimethyl sulfoxide-containing olive oil solution, were subcutaneously injected once daily, 5 days weekly, for 4 weeks. On the next day after final administration, the wet weight of the ventral prostate was measured to evaluate the AR agonistic effect of the compound of the present invention. On the next day following final administration, moreover, the right femur was removed, and fixed overnight in a 10% neutrally buffered formalin solution. Then, the bone mineral density at the site ranging from the diaphysis to the proximal end was measured by the method of double energy X-ray absorption using a bone mineral content-measuring machine (Aloka, DCS-600) to evaluate increasing action of bone mineral density of the compound of the present invention.

Test [3] concerns the target T1, Rat androgen receptors (rat AR) (Rattus norvegicus, UniProt P15207).
T1 construct: from tissue; host or cells: prostate of orchiectomized male SD rats (100,000 x g supernatant)
T1 sequence (P15207 1-902): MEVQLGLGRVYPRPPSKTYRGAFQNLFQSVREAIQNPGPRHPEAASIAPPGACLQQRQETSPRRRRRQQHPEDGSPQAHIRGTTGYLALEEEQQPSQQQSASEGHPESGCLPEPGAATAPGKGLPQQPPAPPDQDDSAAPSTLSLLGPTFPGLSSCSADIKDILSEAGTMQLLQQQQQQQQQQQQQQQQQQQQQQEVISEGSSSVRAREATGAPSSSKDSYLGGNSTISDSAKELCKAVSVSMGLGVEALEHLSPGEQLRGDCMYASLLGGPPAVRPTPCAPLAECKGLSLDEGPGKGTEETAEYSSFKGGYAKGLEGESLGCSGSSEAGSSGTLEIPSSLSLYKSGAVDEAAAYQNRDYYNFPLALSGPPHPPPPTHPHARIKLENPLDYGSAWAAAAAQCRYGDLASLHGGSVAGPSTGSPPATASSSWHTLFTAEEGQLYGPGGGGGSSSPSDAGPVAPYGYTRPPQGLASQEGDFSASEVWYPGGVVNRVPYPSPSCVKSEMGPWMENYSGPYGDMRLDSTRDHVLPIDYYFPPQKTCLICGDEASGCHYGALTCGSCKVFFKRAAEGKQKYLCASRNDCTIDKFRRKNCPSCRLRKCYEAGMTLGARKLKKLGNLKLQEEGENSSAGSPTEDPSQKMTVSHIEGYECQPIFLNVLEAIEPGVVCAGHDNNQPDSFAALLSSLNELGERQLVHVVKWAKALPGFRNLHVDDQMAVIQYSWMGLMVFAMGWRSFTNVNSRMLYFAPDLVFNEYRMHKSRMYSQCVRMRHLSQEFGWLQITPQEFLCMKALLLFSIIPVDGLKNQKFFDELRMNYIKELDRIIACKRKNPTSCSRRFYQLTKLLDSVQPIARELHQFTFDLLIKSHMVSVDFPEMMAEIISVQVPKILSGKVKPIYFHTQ
Description: Test for competitive binding to rat androgen receptors. Particulars: 3H-testosterone, rat prostate AR fraction; hydroxyflutamide taken as 100. The protocol:
Test for Competitive Binding to Rat Androgen Receptors (Rat AR)
Preparation of rat AR fraction: Prostates were harvested into ice-cooled ET buffer (10 mM Tris, 1 mM EDTA, 5 mM DTT, 10 mM sodium molybdate, pH 7.4) 3 days after orchiectomy in 11-week-old male SD rats. The prostate was finely cut, and ET buffer was added, whereafter the mixture was homogenized using a homogenizer. The homogenate was ultracentrifuged (100,000×g, 60 min, 4° C.), and the supernatant was used as a rat AR fraction (hereinafter referred to as ARF).
Binding test: ^3H-testosterone (hereinafter referred to as ^3H-T) was diluted with ET buffer. Dihydrotestosterone (DHT) was prepared so as to have a concentration (final concentration 1 μM) 400 times the maximum concentration of ^3H-T (2.5 nM). The ^3H-T solution was added to a 1.5 ml tube containing DHT, no DHT, or the test compound with a varying concentration. Further, 200 μg ARF was added to adjust the final volume to 100 μl. The mixture was incubated for 2 hours at 4° C., and then 300 μl of a 0.05% dextran T70-1.0% activated carbon solution was added. The mixture was further incubated for 15 minutes in ice to remove the free ^3H-T. After centrifugation (4° C., 2,500 rpm, 5 min), 275 μl of the supernatant was harvested into a liquid scintillation vial, and 2 ml of clear-sol was added. The mixture was stirred, allowed to stand, and measured for ^3H radioactivity with a liquid scintillation counter.
Calculation of the relative binding inhibition rate: The binding inhibition rate (%) of the compound according to the present invention was calculated from the following equation, and the 50% inhibition concentration (IC50) was calculated by the probit analysis of the concentration-binding inhibition curve.
The relative binding inhibition rate (RBA: Relative Binding Affinity) was obtained from the following equation (Endocrinology 138, 863-870, 1997): RBA=100×(IC50 of hydroxyflutamide)/(IC50 of the compound of the present invention) • RBA's of the compounds of the present invention, calculated as above, are shown in Table 10.

In test [4] the test system is orchiectomized rats. In words: Action of increasing prostate weight in orchiectomized rats (Test Example 2, printed 21). The class given is in vivo, rat. The note with it: for Weight of prostate: orchiectomized SD rats, Mean ± SD. The protocol:
Action of Increasing Prostate Weight in Orchiectomized Rats
Testes were removed from 8- to 12-week-old male SD rats. From 5 days postoperation, the compound of the present invention (3, 30 mg/kg), suspended in a 0.5% methyl cellulose solution, was subcutaneously injected once daily for a consecutive week, and 6 days weekly for 8 consecutive weeks. On the next day after final administration, the wet weight of the ventral prostate was measured to evaluate the in vivo AR agonistic effect of the compound of the present invention.

The test system of the next test is AR. In words: Assignment of compounds as having AR agonistic or AR antagonistic action (description, no method given). Particulars: compounds named as usable for category A diseases.
Test [5] relates to orchiectomized (ORX) rats. In words: Action of increasing prostate weight in orchiectomized (ORX) rats (Test Example 3). The class given is in vivo, rat. Particulars: 30 mg/kg s.c. once daily for 8 days, ORX SD rats, Mean ± SD. The protocol:
Action of Increasing Prostate Weight in Rats After Orchiectomized (ORX) Rats
Orchiectomy was performed in 8-week-old male SD rats. From 5 days postoperation, the compound of the present invention (Example 60, 30 mg/kg), dissolved in a 5% dimethyl sulfoxide-containing olive oil solution, was subcutaneously injected once daily for 8 days. On the next day after final administration, the wet weight of the ventral prostate was measured to evaluate the AR agonistic effect of the compound of the present invention.

The structures appear in SMILES notation.

Molecule `CCC(=O)O[C@H]1CC[C@H]2[C@@H]3CCC4=CC(=O)CC[C@]4(C)[C@H]3CC[C@]12C` [TP, testosterone propionate] gave a Prostate weight in the test on orchiectomized rats [1] of 80.4 ± 13.7 mg/body weight 100 g.

In test [2] (10 mg/kg s.c. once daily), `C[C@]12CCC(=O)C[C@@H]1CC[C@@H]1[C@@H]2CC[C@]2(C)[C@@H](O)CC[C@@H]12` [DHT, dihydrotestosterone, reference compound] showed a Prostate weight of 150 ± 14 mg/body weight 100 g and a Bone mineral density of 131 ± 7 mg/cm^2.

Turning to `CC(C)(CO)C1Nc2ccc([N+](=O)[O-])cc2C2C=CCC21` (stereo not drawn) [Example 1, 2-methyl-2-(8-nitro-3a,4,5,9b-tetrahydro-3H-cyclopenta[c]quinolin-4-yl)-propan-1-ol], in test [3], the “RBA (Relative Binding Affinity = 100 x IC50 of hydroxyflutamide / IC50 of the compound)” value is given as 4751. Moreover, the Weight of prostate in the test on orchiectomized rats [4] (1-week treatment, 3 mg/kg s.c. once daily) is 18 ± 4 mg/body weight (100 g); in the test on orchiectomized rats [4] (1-week treatment, 30 mg/kg s.c. once daily) it was 26 ± 3 mg/body weight (100 g); in the test on orchiectomized rats [4] (8-week treatment, 3 mg/kg s.c. 6 days weekly), 52 ± 8 mg/body weight (100 g); in the test on orchiectomized rats [4] (8-week treatment, 30 mg/kg s.c. 6 days weekly) it was 97 ± 14 mg/body weight (100 g). In addition, the “Prostate weights in comparison with the comparative example” value in the test with orchiectomized rats [4] (consecutively administered for 1 week (3, 30 mg/kg s.c.)) is “significantly increased prostate weights”. Besides, in the test on orchiectomized rats [4] (duration of treatment extended to 8 weeks (3, 30 mg/kg s.c.)), the “Prostate weight relative to normal control” value is given as “restored the atrophied prostate up to the level of the normal control”. Further, in the test on AR, the AR agonistic action entry is listed as “AR agonistic action”.

`CC(C)NC(=S)NCC(C)(C)C1Nc2ccc([N+](=O)[O-])cc2C2C=CCC21` (stereo not drawn) [Example 69]: the “RBA (Relative Binding Affinity = 100 x IC50 of hydroxyflutamide / IC50 of the compound)” value in test [3] was found to be 244. The Weight of prostate in test [5] is listed as 21 ± 2 mg/body weight 100 g.

On to `CC(C)(CNC(=O)c1ccccc1)C1Nc2ccc([N+](=O)[O-])cc2C2C=CCC21` (stereo not drawn) [Example 56], for which the AR agonistic action result in the test with AR is on record as “AR agonistic action”.

In the case of `CCS(=O)(=O)NCC(C)(C)C1Nc2ccc([N+](=O)[O-])cc2C2C=CCC21` (stereo not drawn) [Example 60], the “RBA (Relative Binding Affinity = 100 x IC50 of hydroxyflutamide / IC50 of the compound)” value in test [3] is 814. The Prostate weight entry in test [2] (60 mg/kg s.c. once daily) is given as “significant increases in the prostate weights”; in test [2] (60 mg/kg s.c. once daily, listed as Ex. 60) it was 56 ± 13 mg/body weight 100 g. Moreover, the Bone mineral density result in test [2] (60 mg/kg s.c. once daily, 60 mg/kg) is listed as “significantly increased the bone mineral density”; in test [2] (60 mg/kg s.c. once daily, listed as Ex. 60, 60 mg/kg), 132 ± 7 mg/cm^2. Also, the AR agonistic action result with AR is “AR agonistic action”. For the same molecule, the Weight of prostate result in test [5] was “significantly increased the prostate weights”.
